The target in test [1] is T1, AKR1B1 (aldose reductase) (Homo sapiens, UniProt P15121). Put plainly: aldose reductase inhibitor screening kit, NADPH consumption at […] nm. Type of test: biochemical.
Test [2] deals with T1, AKR1B1 (aldose reductase). Nature of the test: aldose reductase inhibitor screening kit (NADPH consumption at […] nm); supported by CETSA in Hs578T and SKOV3 cells. In kind it is biochemical.

Our source for the IC50 values is PMC9774946, “Trans-(±)-Kusunokinin Binding to AKR1B1 Inhibits Oxidative Stress and Proteins Involved in Migration in Aggressive Breast Cancer” (Antioxidants, 2022).

The term IC50 denotes the point on the concentration scale where inhibition reaches its midpoint. High values mean weaker potency, low ones greater potency.

For the molecule `COc1ccc(C[C@H]2COC(=O)[C@@H]2Cc2ccc(O[C@@H]3O[C@H](CO)[C@@H](O)[C@H](O)[C@H]3O)c(OC)c2)cc1OC` [(−)AR, trans-(−)-arctiin], in test [1], the IC50 turned out to be 13.7 µM. This lies in the double-digit micromolar range. The molecule `COc1ccc(C[C@H]2COC(=O)[C@@H]2Cc2ccc3c(c2)OCO3)cc1OC` (racemic) [(±)KU, trans-(±)-kusunokinin] returned an IC50 in test [2] of 9.72 ± 0.18 µM.
